Measurements from US10703733B2, “MCL-1 inhibitors” (Gilead Sciences, Inc., priority 2018, dated 2020).
Where two headings read alike, the source gives them in different places.

Experiments:
[1] = target: MCL-1/Bim interaction (recombinant human MCL-1 protein, residues 171-327; biotinylated human Bim peptide, residues 51-76) (Homo sapiens (Human), UniProt Q07820); assay: MCL-1/Bim Binding AlphaLISA Assay; conditions: 0.0625 nM 6xHis-Mcl-1 (171-327), 0.0625 nM biotinylated-Bim peptide
Method in brief: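 AlphaLISA with 0.0625 nM His-tagged MCL-1 (171-327) and 0.0625 nM biotinylated Bim (51-76) in 20 mM Hepes pH 7.5, 150 mM NaCl, 0.002% Brij 35, 1 mM DTT, 0.01% BSA. Compound preincubated 1 h with MCL-1, then Bim 2 h, acceptor beads 1 h, donor beads 1 h; percent inhibition against DMSO and no-protein/no-peptide controls.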

SKBR3 cells = assay: SKBR3 Cell Viability Assay (CellTiter Glo); assay type: cell-based; conditions: CellTiter Glo luminescence, read-out: MCL-1 CV SKBR3 EC50
Method in brief: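 SKBR3 cells (6,000/well) in McCoy 5A + 10% FBS exposed to serially diluted compound for 72 h at 37° C., 5% CO2. Viability by CellTiter Glo luminescence; % inhibition normalized to DMSO (negative) and 10 μM puromycin (positive).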

MCL-1/Bim interaction (recombinant human MCL-1 protein, residues 171-327; biotinylated human Bim peptide, residues 51-76), sequence (Q07820 171-327): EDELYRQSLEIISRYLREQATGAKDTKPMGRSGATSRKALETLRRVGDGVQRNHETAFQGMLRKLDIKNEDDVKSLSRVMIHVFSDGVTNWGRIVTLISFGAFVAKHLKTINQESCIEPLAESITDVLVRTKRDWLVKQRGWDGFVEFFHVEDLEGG

| Structure (SMILES) | IC50 [1] [nM] | EC50 (SKBR3 cells; Homo sapiens, SK-BR-3, 72 h) [nM] | EC50 (SKBR3 cells; 72 hours) [nM] |
| --- | --- | --- | --- |
| CO[C@H]1/C=C/C[C@H](C)C[S@@](=O)(NC(=O)c2cn(C)nc2Cl)=NC(=O)c2ccc3c(c2)N(C[C@@H]2CC[C@H]21)C[C@@]1(CCCc2cc(Cl)ccc21)CO3 [Example 126] | 0.099 | 123 | – |
| CO[C@H]1/C=C/C[C@H](C)C[S@@](=O)(NC(=O)N2CCN(C(C)=O)CC2)=NC(=O)c2ccc3c(c2)N(C[C@@H]2CC[C@H]21)C[C@@]1(CCCc2cc(Cl)ccc21)CO3 [Example 247] | 0.042 | 85 | – |
| CO[C@H]1/C=C/CCC[S@@](=O)(NC(=O)CCc2ccnn2CC(F)(F)F)=NC(=O)c2ccc3c(c2)N(C[C@@H]2CC[C@H]21)C[C@@]1(CCCc2cc(Cl)ccc21)CO3 [Example 92] | 0.1 | 245 | – |
| COC[C@H]1Cn2cc(C(=O)N[S@@]3(=O)=NC(=O)c4ccc5c(c4)N(C[C@@H]4CC[C@H]4[C@@H](OC)/C=C/C[C@H](C)C3)C[C@@]3(CCCc4cc(Cl)ccc43)CO5)cc2CO1 [Example 214] | 0.185 | 55.9 | – |
| CO[C@H]1/C=C/C[C@H](C)C[S@@](=O)(NC(=O)Nc2ccccn2)=NC(=O)c2ccc3c(c2)N(C[C@@H]2CC[C@H]21)C[C@@]1(CCCc2cc(Cl)ccc21)CO3 [Example 441] | 0.223 | 374 | – |
| COC1CN(C(=O)N[S@@]2(=O)=NC(=O)c3ccc4c(c3)N(C[C@@H]3CC[C@H]3[C@@H](OC)/C=C/[C@H](OC)[C@H](C)C2)C[C@@]2(CCCc3cc(Cl)ccc32)CO4)C1 [Example 375] | 0.046 | 22.4 | – |
| CCN(CC)C(=O)OC1CN(C(=O)N[S@@]2(=O)=NC(=O)c3ccc4c(c3)N(C[C@@H]3CC[C@H]3[C@@H](OC)/C=C/C[C@H](C)C2)C[C@@]2(CCCc3cc(Cl)ccc32)CO4)C1 [Example 226] | 0.095 | 71.3 | – |
| CO[C@H]1/C=C/C[C@H](C)C[S@@](=O)(NC(=O)N2CCC(C(F)F)CC2)=NC(=O)c2ccc3c(c2)N(C[C@@H]2CC[C@H]21)C[C@@]1(CCCc2cc(Cl)ccc21)CO3 [Example 258] | 0.117 | 195 | – |
| CO[C@H]1/C=C/C[C@H](C)C[S@@](=O)(NC(=O)NC2CCOCC2)=NC(=O)c2ccc3c(c2)N(C[C@@H]2CC[C@H]21)C[C@@]1(CCCc2cc(Cl)ccc21)CO3 [Example 442] | 0.134 | 122 | – |
| CO[C@H]1/C=C/CCC[S@@](=O)(NC(=O)CCc2cc(C)nn2C)=NC(=O)c2ccc3c(c2)N(C[C@@H]2CC[C@H]21)C[C@@]1(CCCc2cc(Cl)ccc21)CO3 [Example 89] | 0.5 | 855 | – |
| COc1nn(C)cc1C(=O)N[S@@]1(=O)=NC(=O)c2ccc3c(c2)N(C[C@@H]2CC[C@H]2[C@@H](O)CCC[C@H](C)C1)C[C@@]1(CCCc2cc(Cl)ccc21)CO3 [Example 280] | 0.044 | 50 | – |
| CO[C@H]1/C=C/CCC[S@@](=O)(NC(=O)Cc2cn3ccccc3n2)=NC(=O)c2ccc3c(c2)N(C[C@@H]2CC[C@H]21)C[C@@]1(CCCc2cc(Cl)ccc21)CO3 [Example 86] | 1.8 | 4910 | – |
| COc1nn(C)cc1C(=O)N[S@@]1(=O)=NC(=O)c2ccc3c(c2)N(C[C@@H]2CC[C@H]2[C@@H](OC)CCC[C@H](C)C1)C[C@@]1(CCCc2cc(Cl)ccc21)CO3 [Example 240] | 0.018 | 91.5 | – |
| COC(=O)N1CCN(C(=O)N[S@@]2(=O)=NC(=O)c3ccc4c(c3)N(C[C@@H]3CC[C@H]3[C@@H](OC)/C=C/C[C@H](C)C2)C[C@@]2(CCCc3cc(Cl)ccc32)CO4)CC1 [Example 245] | 0.066 | 60.7 | – |
| CC[C@H]1C/C=C/[C@H](OC)[C@@H]2CC[C@H]2CN2C[C@@]3(CCCc4cc(Cl)ccc43)COc3ccc(cc32)C(=O)N=[S@](=O)(NC(=O)c2cnn(C)c2)C1 [Example 201] | 0.042 | 103 | – |
| COc1nn(C)cc1C(=O)N[S@@]1(=O)=NC(=O)c2ccc3c(c2)N(C[C@@H]2CC[C@H]2[C@@H](O)/C=C\C[C@H](C)[C@H]1C)C[C@@]1(CCCc2cc(Cl)ccc21)CO3 [Example 343] | 0.019 | 17.3 | – |
| CO[C@H]1/C=C/[C@H](OC)[C@H](C)C[S@@](=O)(NC(=O)N[C@H]2CC2C(F)F)=NC(=O)c2ccc3c(c2)N(C[C@@H]2CC[C@H]21)C[C@@]1(CCCc2cc(Cl)ccc21)CO3 (some centres unmarked) [Example 227] | 0.076 | 21.3 | – |

| Structure (SMILES) | IC50 [1] [nM] | EC50 (SKBR3 cells; Homo sapiens, SK-BR-3, 72 h) [nM] | EC50 (SKBR3 cells; 72 hours) [nM] |
| --- | --- | --- | --- |
| CCC(=O)N[S@]1(=O)=NC(=O)c2ccc3c(c2)N(C[C@@H]2CC[C@H]2[C@@H](OCCN2CCOCC2)/C=C/CCC1)C[C@@]1(CCCc2cc(Cl)ccc21)CO3 [Example 66] | 2.7 | – | 5830 |
| CO[C@H]1/C=C/C[C@H](C)C[S@@](=O)(NC(=O)c2cc3n(n2)CCCO3)=NC(=O)c2ccc3c(c2)N(C[C@@H]2CC[C@H]21)C[C@@]1(CCCc2cc(Cl)ccc21)CO3 [Example 197] | 0.041 | 130 | – |
| CO[C@H]1/C=C/C[C@H](C)C[S@@](=O)(NC(=O)c2cc3n(c2)C[C@H](C)OC3)=NC(=O)c2ccc3c(c2)N(C[C@@H]2CC[C@H]21)C[C@@]1(CCCc2cc(Cl)ccc21)CO3 [Example 167] | 0.141 | 58.6 | – |
| CO[C@H]1/C=C/CCC[S@@](=O)(NC(=O)CCn2ncc3ccccc32)=NC(=O)c2ccc3c(c2)N(C[C@@H]2CC[C@H]21)C[C@@]1(CCCc2cc(Cl)ccc21)CO3 [Example 52] | 0.9 | 1950 | – |
| CO[C@H]1/C=C/CCC[S@@](=O)(NC(=O)CC(F)(F)F)=NC(=O)c2ccc3c(c2)N(C[C@@H]2CC[C@H]21)C[C@@]1(CCCc2cc(Cl)ccc21)CO3 [Example 23] | 0.8 | 1450 | – |
| CO[C@H]1/C=C/C[C@H](C)C[S@@](=O)(NC(=O)N2CC(O)C2)=NC(=O)c2ccc3c(c2)N(C[C@@H]2CC[C@H]21)C[C@@]1(CCCc2cc(Cl)ccc21)CO3 [Example 289] | 0.053 | 588 | – |
| CO[C@H]1/C=C/CCC[S@](=O)(NC(=O)N2CCS(=O)(=O)CC2)=NC(=O)c2ccc3c(c2)N(C[C@@H]2CC[C@H]21)C[C@@]1(CCCc2cc(Cl)ccc21)CO3 [Example 74] | 7.3 | 10000 | – |
| CO[C@H]1/C=C/CCC[S@](=O)(NC(=O)[C@@H]2C[C@H]2c2ccnn2C)=NC(=O)c2ccc3c(c2)N(C[C@@H]2CC[C@H]21)C[C@@]1(CCCc2cc(Cl)ccc21)CO3 [Example 84] | 0.1 | – | 783 |
| CCOC1CN(C(=O)N[S@@]2(=O)=NC(=O)c3ccc4c(c3)N(C[C@@H]3CC[C@H]3[C@@H](OC)/C=C/C[C@H](C)C2)C[C@@]2(CCCc3cc(Cl)ccc32)CO4)C1 [Example 235] | 0.035 | 39.8 | – |
| CO[C@H]1/C=C/C[C@H](C)C[S@@](=O)(NC(=O)N[C@@H]2C[C@@H]2C)=NC(=O)c2ccc3c(c2)N(C[C@@H]2CC[C@H]21)C[C@@]1(CCCc2cc(Cl)ccc21)CO3 [Example 162] | 0.18 | 136 | – |
| CO[C@H]1/C=C/CCC[S@@](=O)(NC(=O)[C@@H]2C[C@H]2c2ccnn2C)=NC(=O)c2ccc3c(c2)N(C[C@@H]2CC[C@H]21)C[C@@]1(CCCc2cc(Cl)ccc21)CO3 [Example 83] | 0.1 | – | 460 |
| COCC1(O)CN(C(=O)N[S@@]2(=O)=NC(=O)c3ccc4c(c3)N(C[C@@H]3CC[C@H]3[C@@H](OC)/C=C/C[C@H](C)C2)C[C@@]2(CCCc3cc(Cl)ccc32)CO4)C1 [Example 268] | 0.058 | 88.8 | – |
| CO[C@H]1/C=C/C[C@H](C)C[S@@](=O)(NC(=O)c2ccc3c(c2)CCOC3)=NC(=O)c2ccc3c(c2)N(C[C@@H]2CC[C@H]21)C[C@@]1(CCCc2cc(Cl)ccc21)CO3 [Example 430] | 0.17 | 139 | – |
| CO[C@H]1/C=C/C[C@H](C)C[S@@](=O)(NC(=O)N[C@H]2C[C@@H]2OC)=NC(=O)c2ccc3c(c2)N(C[C@@H]2CC[C@H]21)C[C@@]1(CCCc2cc(Cl)ccc21)CO3 (single isomer, unassigned) [Example 195] | 0.036 | – | 29.6 |
| C[C@H]1C/C=C/[C@H](O)[C@@H]2CC[C@H]2CN2C[C@@]3(CCCc4cc(Cl)ccc43)COc3ccc(cc32)C(=O)N=[S@](=O)(NC(=O)N[C@H]2C[C@@H]2C(F)F)C1 [Example 321] | 0.037 | 47.1 | – |
| CO[C@H]1/C=C/CCC[S@@](=O)(NC(=O)C2COC2)=NC(=O)c2ccc3c(c2)N(C[C@@H]2CC[C@H]21)C[C@@]1(CCCc2cc(Cl)ccc21)CO3 [Example 24] | 0.2 | 891 | – |
| CO[C@H]1/C=C/CCC[S@@](=O)(NC(=O)COC2CCOCC2)=NC(=O)c2ccc3c(c2)N(C[C@@H]2CC[C@H]21)C[C@@]1(CCCc2cc(Cl)ccc21)CO3 [Example 105] | 0.1 | 351 | – |
